Test results published in US20060223884A1, “Compounds and compositions for use in the prevention and treatment of obesity and related syndromes” (priority 2005, published 2006).
Like-named read-outs stand apart in the source and are kept apart here.

Legend:
[1] = format: in vivo; conditions: ob/ob mice
Description: The objective of this study was to evaluate the effect of chronic administration of 4-hydroxyisoleucine (4-OH, compound 14a) on food consumption and body weight gain in a genetic model of obesity, the ob/ob mouse. Body weight gain and food consumption were monitored for 1 week prior to the commencement of treatment, and then for the 56 days of treatment.
A total of 16 animals were used in the study. The animals were distributed into 2 groups (1 treated, 1 control group, all on standard chow). Each group was composed of 8 animals. The mice were randomized according to body weight values.
For the eight weeks of treatment, the test agent was dissolved in reverse osmosis water. 4-hydroxyisoleucine was aliquoted and kept at 4° C. Control animals received reverse osmosis water twice daily (group 1). Mice from group 2 were treated twice daily with 4-OH at 100 mg/kg. All groups were treated by oral gavage. Treatment commenced on Day 0 and ended on Day 56 (FIGS. 16A and 16B). Food consumption was measured daily and averaged on a weekly basis beginning one week before the start of treatment as shown in FIG. 16B.

[2] = DIO mice
Description: The objective of this study was to evaluate the effect of chronic administration of 4-hydroxyisoleucine (4-OH, compound 14a) and Rosiglitazone, administered alone or in combination, on food consumption and body weight gain of DIO-mice. Both parameters were monitored for 1 week prior to the commencement of treatment, then for the 28 days of treatment and for an additional 7 days post-treatment.
A total of 72 animals were used in the study. The animals were distributed into 6 groups (5 treated, 1 control group, all on high fat diet). Each group was composed of 12 animals. The mice were randomized according to body weight and basal glycemia values following a 5±0.5 hour fasting period.
For the four weeks of treatment, the test articles were dissolved in reverse osmosis water. 4-Hydroxyisoleucine was aliquoted and kept at 4° C. (administration to groups 2, 3, and 6), while Rosiglitazone was freshly prepared daily and kept at 4° C. between the AM and PM administration to groups 4, 5, and 6. Control animals received reverse osmosis water twice daily (group 1). Mice from groups 2 and 3 were treated twice daily with 4-OH at 50 and 100 mg/kg, respectively. Animals from groups 4 and 5 received 1.5 and 5 mg/kg of Rosiglitazone, respectively. […] All groups were treated by oral gavage. Treatment commenced on Day 0 and ended on Day 28 (FIGS. 17A and 17C).
Food consumption was measured and averaged on a weekly basis beginning one week before the start of treatment as shown in FIGS. 17B and 17D as week −1. Similarly, food consumption was monitored for one week after treatment was stopped and is shown as week 5 in FIGS. 17B and 17D. In FIG. 17B, the food consumption over time for various treatment groups is illustrated by the bar graph.

[3] = Oral Glucose Tolerance Test (OGTT) in DIO mice, 4-hydroxyisoleucine and Exendin-4 alone or in combination (Example 5); format: in vivo, C57BI/6 mice; conditions: single agent, 4-OH 50 mg/kg or Exendin-4 0.01 mg/kg, after 7, 14 and 21 days of treatment
Method: Glycemic response was monitored by an Oral Glucose Tolerance Test (OGTT) performed on days 0, 7, 14, and 21 of treatment.
A total of 56 animals were used in the study. The animals were distributed into 7 groups (5 treated, 1 normal diet control, and 1 high fat diet control group). Each group was composed of 8 animals. […] For the three weeks of treatment, the test agents were dissolved in sterile saline for injection (USP). 4-Hydroxyisoleucine was kept at 4° C. (administration to groups 3, 4, and 7) while a frozen aliquot of Exendin-4 was thawed each dosing day for administration to groups 5, 6, and 7. Control animals received sterile saline, twice daily (groups 1 and 2). […] Animals from groups 5 and 6 received sterile saline as the AM treatment, while the PM treatment consisted of 0.05 and 0.01 mg/kg of Exendin-4, respectively. For Group 7, the AM treatment consisted of 50 mg/kg 4-OH only, while the PM treatment consisted of 0.01 mg/kg of Exendin-4+50 mg/kg of 4-OH. All groups were treated by subcutaneous injection.
On days 0, 7, 14, and 21, animals fasted for approximately 5 hours were challenged with an Oral Glucose Tolerance Test (OGTT) at 5 hours post-AM test agent administration. Whole blood glucose levels were monitored using a hand-held glucometer prior to OGTT and for up to 2 hours post-glucose challenge.

[4] = Body weight of DIO mice, 4-hydroxyisoleucine and Rimonabant alone and in combination (Example 7); format: in vivo, C57BU6 mice; conditions: oral
Method: C57BU6 mice were received at 7-8 weeks of age and fed a high fat diet (60% of calories from fat) for 8 weeks. Seven days prior to treatment, animals were randomized based on their body weight and fasted glycemia values into control and treated groups (n=8). The animals were treated by oral gavage twice daily with 4-OH (50 mg/kg of body weight; group 2), once daily in the afternoon with Rimonabant (0.1 mg/kg; group 3), and a combination of the two treatments (4-OH 50 mg/kg twice daily +Rimonabant 0.1 mg/kg once daily; group 4). The control group (group 1) received vehicle alone twice daily. After 3 weeks of treatment (day 22), the doses were increased as follows: 4-OH 100 mg/kg twice daily (group 2), Rimonabant 1 mg/kg once daily (group 3), and the combination (4-OH 100 mg/kg twice daily+Rimonabant 1 mg/kg once daily; group 4). The animals were treated for 1 week with these higher doses. Body weight of the mice was recorded every day for all groups from Day 6 to Day 28.

[5] = Prevention of weight gain in Wistar rats fed a high fat, high sucrose diet (Example 10); format: in vivo; conditions: Wistar rats on HFHS diet, 100 mg/kg twice daily oral
Description: The aim of this study was to evaluate the effect of chronic administration of 4-hydroxyisoleucine (4-OH, Compound 14a) on food consumption, tissue weight, and body weight gain of normal Wistar rats fed a high fat, high sucrose diet (HFHS).
The animals were acclimated for 1 week and fed standard chow prior to the commencement of treatment, then for the 28 days of the treatment the animals were fed a high fat, high sucrose diet (HFHS). A total of 30 animals were used in the study. The animals were distributed into 3 groups each composed of 10 animals: 1 group fed HFHS with treatment, 1 untreated control group fed standard chow, and 1 untreated group fed HFHS. Animals were housed separately and food consumption was monitored daily.
For the four weeks of treatment, the test compounds were dissolved in reverse osmosis water. 4-hydroxyisoleucine (4-OH) was aliquoted and kept at 4° C. Treated animals received twice daily oral administration of 4-OH at 100 mg/kg per dose. Control animals received water twice daily.

[6] = 4-OH 50 or 100 mg/kg twice daily

For `C[C@@H]([C@H](C)O)[C@H](N)C(=O)O` [compound 14a, (2S,3R,4S)-4-Hydroxyisoleucine], the “weight gain during the course of treatment” value ([1]; 100 mg/kg twice daily oral) was “moderation of weight gain”, the “weight gain as compared to the control group” value ([1]; 100 mg/kg twice daily oral, Day 21 to Day 56) was “significantly reduced” and the tolerability of treatment ([1]; 100 mg/kg twice daily, oral gavage, 56 days) was “well tolerated”. For the same compound, the food consumption ([1]; first three weeks of treatment but not later on) was “slight decrease in food consumption”, the “weight gain induced by Rosiglitazone” value ([2]; 4-OH 50 mg/kg co-administered with Rosiglitazone 1.5 mg/kg) was “able to modulate the weight gain induced by Rosiglitazone” and the “food consumption (FIG. 17D)” value ([2]; 4-OH 50 mg/kg, Rosiglitazone 1.5 mg/kg, or the two co-administered) was “reduction in food consumption during the first week, but not after”. The weight gain ([2]; 4-OH 100 mg/kg twice daily oral, 28 days) was “Moderation of weight gain”, the “food consumption, first week of treatment (FIG. 17B)” value [2, 6] was “decreased” and the “food consumption, remainder of the treatment phase (FIG. 17B)” value [2, 6] was “returned to pre-treatment levels”. For the same compound, the “glycemic levels following OGTT challenge” value [3] was “consistently effective at reducing glycemic levels”, the “body weight gain after 21 days (low dosage treatment)” value ([4]; 4-OH 50 mg/kg twice daily, Rimonabant 0.1 mg/kg once daily, alone or in combination) was “slight reduction of body weight gain” and the “body weight after dose increase (day 22 to 28)” value ([4]; 4-OH 100 mg/kg twice daily, Rimonabant 1 mg/kg once daily, alone or in combination (combination compared to each compound separately)) was “immediately reduced the body weight”. For the same compound, the “epididymal and peri-renal adipose tissue” value ([5]; 28 days) was “reduction of epididymal and peri-renal adipose tissue”, the tolerability of treatment ([5]; 28 days) was “well tolerated” and the weight gain ([5]; 28 days) was “Moderation of weight gain”. The “muscle, brown fat, and organ weight” value ([5]; 28 days (data not shown)) was “not affected” and the food consumption ([5]; 28 days, could not account for the differences in weight gain) was “reduction in food consumption”.
